After the bases stand the sugars from the 5' end (letter, count) and the backbone: PS all phosphorothioate, else s phosphorothioate and o phosphodiester by linkage. Methylation of C is not given here. l = locked nucleic acid (LNA); d = 2'-deoxy (DNA)

The target in the data set is SNHG14. The conditions noted are these: ASO.
Where [1] appears, read: Mouse Primary Neuronal Cell, 0.005 µM.

As to “AAAATTATTTATACACCATC (sugars ldlllllddddddlldddll, PS)”, under “Human Neuronal Cell, 7.5 µM”, the target mRNA inhibition is 61%.

Turning to CTTTTAACCAGAGTGG (sugars l4 d9 l3, PS), where the note is “Human Neuronal Cell, 7.5 µM”, the target mRNA inhibition was found to be 65%.

On to “GTTTCCATCTACTATTAAT (sugars ldddldddddddldldlll, PS)”, for which the target mRNA inhibition (Human Neuronal Cell, 7.5 µM) came to 63%.

With “CTGTATACACCATCCCA (sugars ldlddddddddddldll, PS)”, the target mRNA inhibition (Human Neuronal Cell, 7.5 µM) was 62%.

Take “TGAAAATCTCAACTACCAT (sugars llldllddddddlddddll, PS)”: the target mRNA inhibition (Human Neuronal Cell, 7.5 µM) came out at 55%.

Regarding TTCTACTATACTTTCC (sugars l4 d10 l2, PS), the target mRNA inhibition by setting is: (Human Neuronal Cell, 0.2 µM) 55%; (Human Neuronal Cell, 1 µM) 69%.

Regarding “CTCATACTTGCTTTAAT (sugars l2 d13 l2, PS)”, the target mRNA inhibition runs as follows: (Human Neuronal Cell, 0.2 µM) -18%; (Human Neuronal Cell, 1 µM) 13%; (Human Neuronal Cell, 5 µM) 17%; under setting [1], 84.1%.

Turning to “ATTTACACTTAATTATACTT (sugars lllldllddddddlldddll, PS)”, under “Human Neuronal Cell, 7.5 µM”, the target mRNA inhibition worked out at 38%.

For the sequence “TTTTTTCTTACTATCTTCAA (sugars ldllldldddddddddldll, PS)”, the target mRNA inhibition (Human Neuronal Cell, 7.5 µM) was 58%.

With “TTATAGCCATTCTATCT (sugars lddlddddddddlldll, PS)”, the target mRNA inhibition (Human Neuronal Cell, 7.5 µM) worked out at 25%.

With “AGTTCTACTATACTTTC (sugars l4 d11 l2, PS)”, the target mRNA inhibition (Human Neuronal Cell, 0.2 µM) was 50% and the target mRNA inhibition (Human Neuronal Cell, 1 µM) turned out to be 57%.

“GAAAATCTCAACTACCATT (sugars l2 d12 l5, PS)”: where the note is “Human Neuronal Cell, 7.5 µM”, the target mRNA inhibition came to 49%.

For the sequence “AATTTTTTTCTTACTATCTT (sugars llddlldddddddldlldll, PS)”, the target mRNA inhibition (Human Neuronal Cell, 7.5 µM) was 61%.

For “GTTACCTACATCTCATA (sugars l2 d11 l4, PS)”, the target mRNA inhibition runs as follows: (Human Neuronal Cell, 0.2 µM) -4%; (Human Neuronal Cell, 1 µM) 10%; (Human Neuronal Cell, 5 µM) 21%; under setting [1], 92%.

For “TTACACTTAATTATACTTCC (sugars ldldddlddddddddlddll, PS)”, the target mRNA inhibition (Human Neuronal Cell, 7.5 µM) was 64%.

As to “AGCAACATTATTAACCAC (sugars lddlddddddddldllll, PS)”, the target mRNA inhibition (Human Neuronal Cell, 7.5 µM) amounted to 47%.

Turning to “AAAGATCATTCTCAACAA (sugars l5 d10 l3, PS)”, where the note is “Human Neuronal Cell, 7.5 µM”, the target mRNA inhibition came to 64%.

Turning to “GTTCTACTATACTTTCCTC (sugars l1 d14 l1 d1 l2, PS)”, the target mRNA inhibition (Human Neuronal Cell, 7.5 µM) is 54%.

Regarding “AATTTTTTTCTTACTATCTT (sugars lldldlddddddddlddlll, PS)”, the target mRNA inhibition (Human Neuronal Cell, 7.5 µM) was determined as 43%.

Consider “CAGCTTTTAACCAGAGT (sugars l2 d12 l3, PS)”, for which the target mRNA inhibition (Human Neuronal Cell, 7.5 µM) stood at 79%.

Regarding “ATATTGATTCAATTCCC (sugars lddllddddddlddlll, PS)”, for the setting “Human Neuronal Cell, 7.5 µM”, the target mRNA inhibition was 62%.

As for “GCACATTCTTTCTATACC (sugars ldldldddddddddddll, PS)”, the target mRNA inhibition (Human Neuronal Cell, 7.5 µM) was 61%.

Regarding “ATCATTCTCAACAATTA (sugars l5 d7 l1 d1 l3, PS)”, where the note is “Human Neuronal Cell, 7.5 µM”, the target mRNA inhibition stood at 54%.

In the case of CTCTGCTTATAACTTT (sugars l4 d10 l2, PS), the target mRNA inhibition was 20% (Human Neuronal Cell, 0.2 µM) and 53% (Human Neuronal Cell, 1 µM).

For “TTATAGCCATTCTATCT (sugars l2 d9 l1 d3 l2, PS)”, the target mRNA inhibition (Human Neuronal Cell, 7.5 µM) is 52%.

Regarding “TTTATACCTTTCTTTAACCC (sugars lddddlddddddddddldll, PS)”, the target mRNA inhibition (Human Neuronal Cell, 7.5 µM) is 63%.

Consider TTTAACCTTGCTTATA (sugars l2 d10 l4, PS), for which the target mRNA inhibition (Human Neuronal Cell, 0.2 µM) stood at 23% and the target mRNA inhibition (Human Neuronal Cell, 1 µM) came out at 25%.

In the case of “TTTATTTCCATTTATTTTC (sugars llddlldddddddldllll, PS)”, the target mRNA inhibition (Human Neuronal Cell, 7.5 µM) came out at 66%.

In the case of TTTGACATTCCATCTC (sugars l3 d10 l3, PS), the target mRNA inhibition by setting is: (Human Neuronal Cell, 0.2 µM) 56%; (Human Neuronal Cell, 1 µM) 59%.

As for CAGTTTAAATTCACAC (sugars l3 d10 l3, PS), the target mRNA inhibition (Human Neuronal Cell, 0.2 µM) stood at 34% and the target mRNA inhibition (Human Neuronal Cell, 1 µM) worked out at 46%.

Take “GCAACATTATTAACCACCT (sugars ldlldlddddddlddldll, PS)”: the target mRNA inhibition (Human Neuronal Cell, 7.5 µM) came to 44%.

Take “TTATAGCCATTCTATCT (sugars l3 d9 l1 d1 l3, PS)”: the target mRNA inhibition (Human Neuronal Cell, 7.5 µM) came out at 54%.

For the sequence “AGCAACATTATTAACCAC (sugars l3 d9 l3 d1 l2, PS)”, for the setting “Human Neuronal Cell, 7.5 µM”, the target mRNA inhibition worked out at 27%.

As to “TTTACACTTAATTATACTTC (sugars ldddlldddddddllddlll, PS)”, the target mRNA inhibition (Human Neuronal Cell, 7.5 µM) was 60%.

For the sequence “AGCAACATTATTAACCAC (sugars l5 d7 l1 d3 l2, PS)”, the target mRNA inhibition (Human Neuronal Cell, 7.5 µM) turned out to be 47%.

Consider ACTTAATTATACTTCC (sugars l4 d10 l2, PS), for which the target mRNA inhibition (Human Neuronal Cell, 0.2 µM) stood at 62% and the target mRNA inhibition (Human Neuronal Cell, 1 µM) was 64%.

TTATACCCTTTCCAAT (sugars l2 d10 l4, PS): the target mRNA inhibition by setting is: (Human Neuronal Cell, 0.2 µM) 40%; (Human Neuronal Cell, 1 µM) 60%.

For the sequence CCTTTCCAATGAATCT (sugars l3 d10 l3, PS), the target mRNA inhibition is 45% (Human Neuronal Cell, 0.2 µM) and 60% (Human Neuronal Cell, 1 µM).

As to CCTTAGTATTACAATT (sugars l4 d10 l2, PS), the target mRNA inhibition was found to be 58% (Human Neuronal Cell, 0.2 µM) and 71% (Human Neuronal Cell, 1 µM).

Regarding “TTTATACCTTTCTTTAACCC (sugars l1 d15 l1 d1 l2, PS)”, for the setting “Human Neuronal Cell, 7.5 µM”, the target mRNA inhibition was 36%.

Turning to “TGAAAATCTCAACTACCAT (sugars ldldldddddddldddlll, PS)”, under “Human Neuronal Cell, 7.5 µM”, the target mRNA inhibition was determined as 50%.

In the case of “TCAGCTTTTAACCAGAGT (sugars l2 d13 l3, PS)”, the target mRNA inhibition (Human Neuronal Cell, 7.5 µM) was found to be 79%.

With CTTCAAGAATTCTCTC (sugars l2 d10 l4, PS), the target mRNA inhibition is, setting by setting: (Human Neuronal Cell, 0.2 µM) 44%; (Human Neuronal Cell, 1 µM) 43%.

In the case of “TCTTACTCTGACTTTCC (sugars l2 d12 l3, PS)”, the target mRNA inhibition runs as follows: (Human Neuronal Cell, 0.2 µM) 68%; (Human Neuronal Cell, 1 µM) 71%.

On to CCACCTAAGACCTCAA (sugars l2 d10 l4, PS), for which the target mRNA inhibition is 53% (Human Neuronal Cell, 0.2 µM) and 60% (Human Neuronal Cell, 1 µM).

As to “GCACATTCTTTCTATACCT (sugars ldldlddddddddddddll, PS)”, the target mRNA inhibition (Human Neuronal Cell, 7.5 µM) came to 57%.

For CCATACAGTATATACA (sugars l4 d10 l2, PS), the target mRNA inhibition by setting is: (Human Neuronal Cell, 0.2 µM) 31%; (Human Neuronal Cell, 1 µM) 56%.

On to AGCATTCAACCCTAAT (sugars l4 d10 l2, PS), for which the target mRNA inhibition (Human Neuronal Cell, 0.2 µM) was 52% and the target mRNA inhibition (Human Neuronal Cell, 1 µM) was found to be 60%.

Consider AGCTCTAAACCTTCAA (sugars l3 d10 l3, PS), for which the target mRNA inhibition runs as follows: (Human Neuronal Cell, 0.2 µM) 40%; (Human Neuronal Cell, 1 µM) 12%.

Regarding “GTTTATACCCTTTCCAAT (sugars l2 d11 l1 d2 l2, PS)”, under “Human Neuronal Cell, 7.5 µM”, the target mRNA inhibition came out at 67%.

On to “GTTTATACCCTTTCCAA (sugars l3 d11 l3, PS)”, for which the target mRNA inhibition (Human Neuronal Cell, 0.2 µM) was determined as 57% and the target mRNA inhibition (Human Neuronal Cell, 1 µM) stood at 63%.

Turning to “TGTTTCCATCTACTATTA (sugars l1 d4 l1 d10 l2, PS)”, the target mRNA inhibition (Human Neuronal Cell, 7.5 µM) was found to be 60%.

“AAAATCTCAACTACCATTTT (sugars lddllldddddddldldlll, PS)”: the target mRNA inhibition (Human Neuronal Cell, 7.5 µM) worked out at 36%.

Consider CAACTCTATGACTACC (sugars l2 d10 l4, PS), for which the target mRNA inhibition worked out at 46% (Human Neuronal Cell, 0.2 µM) and 36% (Human Neuronal Cell, 1 µM).

Regarding “TTCTGTATACACCATCCC (sugars ldddlddddddddlddll, PS)”, under “Human Neuronal Cell, 7.5 µM”, the target mRNA inhibition was 54%.

Consider “TTTATCAATATCTTCTCAC (sugars l1 d4 l1 d9 l4, PS)”, for which, where the note is “Human Neuronal Cell, 7.5 µM”, the target mRNA inhibition stood at 52%.

Take “AATTATTTATACACCATCAT (sugars lldldlddddddddllldll, PS)”: for the setting “Human Neuronal Cell, 7.5 µM”, the target mRNA inhibition was found to be 59%.

As for TTTCCAATGAATCTAT (sugars l2 d10 l4, PS), the target mRNA inhibition was 21% (Human Neuronal Cell, 0.2 µM) and 36% (Human Neuronal Cell, 1 µM).

“TTATAGCCATTCTATCT (sugars llldlddddddldddll, PS)”: the target mRNA inhibition (Human Neuronal Cell, 7.5 µM) was determined as 52%.

With GAACAACTTCTATCAT (sugars l2 d10 l4, PS), the target mRNA inhibition (Human Neuronal Cell, 0.2 µM) is 16% and the target mRNA inhibition (Human Neuronal Cell, 1 µM) is 28%.

On to TCCAGCATATTATATA (sugars l4 d10 l2, PS), for which the target mRNA inhibition runs as follows: (Human Neuronal Cell, 0.2 µM) 24%; (Human Neuronal Cell, 1 µM) 10%.

On to “TACACTTAATTATACTTCCA (sugars lddlddlddddddlddddll, PS)”, for which the target mRNA inhibition (Human Neuronal Cell, 7.5 µM) came out at 61%.

As to “TTTTTATACCTTTCTTTAAC (sugars l2 d12 l3 d1 l2, PS)”, the target mRNA inhibition (Human Neuronal Cell, 7.5 µM) stood at 62%.

In the case of “AGATCATTCTCAACAATT (sugars ldldlldddddddlllll, PS)”, the target mRNA inhibition (Human Neuronal Cell, 7.5 µM) came out at 32%.

On to “TGCTACCATCATTACCT (sugars l2 d13 l2, PS)”, for which the target mRNA inhibition (Human Neuronal Cell, 0.2 µM) amounted to 12% and the target mRNA inhibition (Human Neuronal Cell, 1 µM) stood at 19%.

For “TTTATCAATATCTTCTCACT (sugars lddlddldddddddddldll, PS)”, for the setting “Human Neuronal Cell, 7.5 µM”, the target mRNA inhibition is 58%.

As to TACTATACTTTCCTCT (sugars l2 d10 l4, PS), the target mRNA inhibition (Human Neuronal Cell, 0.2 µM) was found to be 59% and the target mRNA inhibition (Human Neuronal Cell, 1 µM) was determined as 60%.

As to “TCTTACCAATAGTTACC (sugars l4 d11 l2, PS)”, the target mRNA inhibition came out at 45% (Human Neuronal Cell, 0.2 µM) and 55% (Human Neuronal Cell, 1 µM).

In the case of TTACTCTTAGCAACCT (sugars l4 d10 l2, PS), the target mRNA inhibition reads like this: (Human Neuronal Cell, 0.2 µM) 58%; (Human Neuronal Cell, 1 µM) 54%.

“ATTGATTCAATTCCCTT (sugars lddlddddddddldlll, PS)”: the target mRNA inhibition (Human Neuronal Cell, 7.5 µM) came to 67%.

Regarding AAATATTGCCACCATT (sugars l2 d10 l4, PS), the target mRNA inhibition (Human Neuronal Cell, 0.2 µM) is 51% and the target mRNA inhibition (Human Neuronal Cell, 1 µM) is 63%.

Regarding “AAAATTATTTATACACCATC (sugars lllllllddddddldlddll, PS)”, for the setting “Human Neuronal Cell, 7.5 µM”, the target mRNA inhibition was 49%.

For the sequence “TTATAGCCATTCTATCT (sugars l4 d7 l1 d3 l2, PS)”, the target mRNA inhibition (Human Neuronal Cell, 7.5 µM) came out at 44%.

For “GAAAATCTCAACTACCATT (sugars ldllddddddddldldlll, PS)”, the target mRNA inhibition (Human Neuronal Cell, 7.5 µM) is 57%.

As to “ACTGTTTATACCCTTTC (sugars l1 d11 l1 d1 l3, PS)”, the target mRNA inhibition (Human Neuronal Cell, 7.5 µM) was found to be 59%.

In the case of “TCTTTCCATTTATTTCCAT (sugars lddldldddddddldldll, PS)”, the target mRNA inhibition (Human Neuronal Cell, 7.5 µM) turned out to be 37%.

“AGCAACATTATTAACCACC (sugars ldddddddddddldlddll, PS)”: the target mRNA inhibition (Human Neuronal Cell, 7.5 µM) came to 26%.

The values above are taken from the OligoGym collection.
